In US9969719B2, “Substituted 2-hydrogen-pyrazole derivative serving as anticancer drug” (CHIA TAI TIANQING PHARMACEUTICAL GROUP CO., LTD., priority 2015, dated 2018):
Read-outs that look alike come from different tables or passages of the source.

Key:
MDA-MB-436 cells = test: MDA-MB-436 cell proliferation (CellTiter-Glo); format: cell-based; details: Homo sapiens
Method: RPMI 1640 medium, fetal bovine serum, penicillin/streptomycin were purchased from Promega (Madison, Wis.). The MCF-7 cell line and the MDA-MB-436 cell line were purchased from the European Collection of Authenticated Cell Cultures (ECACC). EnVision® Multilabel Plate Reader (PerkinElmer) was used.
(§1) The compounds to be tested were diluted three times using Bravo to the tenth concentration, i.e., diluted from 10 μM to 0.508 nM. A duplicate well test was performed. The medium was added to the middle plate in an amount of 49 μL per well. The gradient dilutions of the compounds were transferred in an amount of 1 μL per well to the middle plate at the corresponding positions, and the mixture was mixed and transferred to the cell plate in an amount of 5 μL per well. The cell plate was incubated in a carbon dioxide incubator for 6 days. Promega CellTiter-Glo reagent was added to the cell plate in an amount of 25 μL per well. The cell plate was incubated at room temperature for 10 minutes to stabilize the luminescence signal. EnVision® Multilabel Plate Reader (PerkinElmer) was used for signal detection.
The IC50 values were obtained by curve fitting using four parameters (obtained from the 205 mode in XLFIT5, iDBS). Table 1 provides the inhibitory activities of the compounds of the invention against the proliferation of MCF-7 cells and MDA-MB-436 cells.

CDK4/cyclin D1 = target: T1, CDK4/cyclin D1 (Homo sapiens, UniProt P11802); test: CDK4/cyclin D1 Lance Ultra enzyme assay; format: biochemical; details: for inhibitory activities against CDK4 compared with the reference compounds: versus Palbociclib and LY2835219, in words; for IC50: 350 μM ATP, 180 minutes
T1 construct: purchased Life Technologies
T1 sequence (P11802 whole entry): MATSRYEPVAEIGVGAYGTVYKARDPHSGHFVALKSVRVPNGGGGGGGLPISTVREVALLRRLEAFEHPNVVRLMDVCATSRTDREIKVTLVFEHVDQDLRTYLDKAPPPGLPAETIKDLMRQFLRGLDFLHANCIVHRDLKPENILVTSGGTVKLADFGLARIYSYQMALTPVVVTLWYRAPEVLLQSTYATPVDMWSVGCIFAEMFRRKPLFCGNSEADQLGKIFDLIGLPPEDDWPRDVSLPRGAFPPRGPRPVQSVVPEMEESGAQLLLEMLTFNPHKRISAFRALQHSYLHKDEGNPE
T1 sequence (P24385 whole entry partner): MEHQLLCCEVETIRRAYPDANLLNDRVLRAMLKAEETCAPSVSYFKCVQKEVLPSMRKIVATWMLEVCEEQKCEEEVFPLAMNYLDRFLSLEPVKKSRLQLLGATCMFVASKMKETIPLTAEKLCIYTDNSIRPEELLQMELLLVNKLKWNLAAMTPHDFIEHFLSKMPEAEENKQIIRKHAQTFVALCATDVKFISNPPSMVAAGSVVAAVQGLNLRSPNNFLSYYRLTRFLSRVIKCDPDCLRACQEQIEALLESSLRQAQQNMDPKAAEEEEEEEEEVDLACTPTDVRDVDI
Method: (§2) The experimental materials included CDK2/cyclin A, CDK4/cyclin D1, CDK6/cyclin D1 (Life Technologies); ULight-labeled polypeptide substrates, i.e., ULight-4E-BP1 and ULight-MBP (PerkinElmer); the europium-labeled antibody against anti-myelin basic protein and europium-labeled rabbit antibody (PerkinElmer); and Envision® Multilabel Plate Reader (PerkinElmer) used for signal detection.
(§3) The compounds to be tested were diluted three times so as to be at ten gradually varied concentrations.
(§4) The dilutions of the compounds were dissolved in enzyme buffer, respectively. The components of the buffer included 50 mM hydroxyethylpiperazine ethanesulfonic acid solution (pH 7.5), 1 mM ethylenediaminetetraacetic acid, 10 mM magnesium chloride, 0.01% Brij-35, and 2 mM dithiothreitol. After the reaction started, the OptiPlate 384-well plate was sealed with top heat-sealing film TopSeal-A and incubated at room temperature for 180 minutes. • The Enzyme Reaction System of CDK6/Cyclin D1
(§5) The stop buffer of the enzyme reaction was prepared by dissolving EDTA in a one-fold dilution of the assay buffer. The reaction was terminated at room temperature for 5 minutes. To each of the reaction systems of CDK2/cyclin A, CDK4/cyclin D1 and CDK6/cyclin D1 was added 5 μL assay mixture (provided with antibody the europium-labeled against anti-myelin basic protein and the europium-labeled rabbit antibody, respectively). They were incubated at room temperature for 60 minutes. The reaction signals were detected by the EnVision instrument according to the principle of time-resolved fluorescence resonance energy transfer.

[1] = system: human breast cancer cell line MCF-7; format: in vivo
Method: The in vivo pharmacodynamic study was carried out in human-based tumor cell line-derived xenografted (CDX) BALB/c nude mice, in which were subcutaneously implanted human breast cancer cell line MCF-7.
. All the cages, matts and water were disinfected before use. All the animals had free access to a standard certified commercial laboratory diet. A total of 100 mice were purchased from Shanghai BK Laboratory Animal Co., LTD for study. An estrogen tablet ([…], sustained release within 60 days) was subcutaneously implanted in the left next abdomen of each mice. After 3 days, the tumor cells (10×10^6 in 0.2 mL of phosphate buffer) were subcutaneously implanted in the right next abdomen of each mice for the tumor growth. The administration started when the average tumor volume reached about 150-200 mm^3. The test compounds were orally administered daily, the doses were shown as Table 5. The tumor volumes were measured with a two-dimensional caliper every three days, the volumes were expressed in cubic millimeters and calculated by the formula V=0.5a×b^2, wherein a and b were the major diameter and minor diameter of the tumor, respectively. Antitumor efficacy was determined by dividing an average increase of the tumor volumes of the animals treated with the compounds by an increase of the tumor volumes of the untreated animals.

CDK6/cyclin D1 = target: T2, CDK6/cyclin D1 (Homo sapiens, UniProt Q00534); test: CDK6/cyclin D1 Lance Ultra enzyme assay; format: biochemical; details: for IC50: 250 μM ATP, 180 minutes; for inhibitory activities against CDK6 compared with the reference compounds: versus Palbociclib and LY2835219, in words
T2 construct: purchased Life Technologies
T2 sequence (Q00534 whole entry): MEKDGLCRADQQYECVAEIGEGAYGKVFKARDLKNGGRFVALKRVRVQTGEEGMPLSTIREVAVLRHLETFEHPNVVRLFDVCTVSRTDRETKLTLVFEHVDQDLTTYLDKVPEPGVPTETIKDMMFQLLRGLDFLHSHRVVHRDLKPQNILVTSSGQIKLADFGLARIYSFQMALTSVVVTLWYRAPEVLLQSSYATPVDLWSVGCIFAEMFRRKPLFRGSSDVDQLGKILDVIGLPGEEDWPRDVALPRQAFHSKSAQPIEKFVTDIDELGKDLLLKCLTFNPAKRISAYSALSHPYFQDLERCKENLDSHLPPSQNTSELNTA
T2 sequence (P24385 whole entry partner): as the sequence (P24385 whole entry partner) above
Method: as §2, §3
as §4, with “minutes.” for “minutes. • The Enzyme Reaction System of CDK6/Cyclin D1”
as §5

MCF-7 cells = test: MCF-7 cell proliferation (CellTiter-Glo, 6 days); format: cell-based, human; details: for IC50: Homo sapiens, MCF7, proliferation, 6 days; for MCF-7/MDA-MB-436: ratio of the proliferation IC50 values; for inhibitory activities against the proliferation of MCF-7 cells compared with the reference compounds: versus Palbociclib and LY2835219, in words
Method: EnVision® Multilabel Plate Reader (PerkinElmer) was used.
MCF-7 cells were inoculated in a black 384-well plate by adding 45 μL of the cell suspension (containing 200 of MCF-7 cells) to each of the wells. The plate was incubated overnight in a carbon dioxide incubator.
as §1, with “A” for “The compounds to be tested were diluted three times using Bravo to the tenth concentration, i.e., diluted from 10 μM to 0.508 nM. A”

CDK2/cyclin A = target: T3, CDK2/cyclin A (Homo sapiens, UniProt P24941); test: CDK2/cyclin A Lance Ultra enzyme assay; format: biochemical; details: 25 μM ATP, 60 minutes
T3 construct: purchased Life Technologies
Method: as §2, §3
as §4, with “The gradient dilutions of” for “The dilutions of”, “temperature for 60 minutes. •” for “temperature for 180 minutes. •”, “System of CDK4/Cyclin D1” for “System of CDK6/Cyclin D1”
as §5

[2] = Study of brain permeability after oral administration; format: in vivo, SD rats; details: for Exposure in brain: 10 mg/kg oral
Method: SD rats were used as the test animals.
Twelve healthy 7- to 9-week-old adult male SD rats were purchased from Shanghai Slack Laboratory Animal Co., Ltd. A proper amount of the test compound was weighed to prepare a 0.5% methylcellulose suspension at 1 mg/mL. The rats received a single oral dose of 10 mg/kg. 0.5 h, 2 h, 8 h, and 24 hours after the administration, 3 rats were respectively killed, and their whole blood and brain tissues were collected. The plasma was prepared by centrifuging the whole blood (3000 g, 15 minutes, 4° C.). The samples of brain homogenate were prepared by mixing the brain tissues with a mixture of methanol and a phosphate buffer (methanol:phosphate buffer=1:2) as homogenate at a ratio of 5:1. The drug concentration of each sample was determined by LC/MS/MS, and AUC was calculated to evaluate the exposure.

Caco-2 monolayer cells = test: Caco-2 cell bi-directional permeability assessment; details: Caco-2
Method: (§6) The standard experimental conditions were as follows: • Test concentration: 2 μM (DMSO≤1%); • Number of replication: n=2; • Direction: bi-directional transportation, including two directions, i.e., A→B and B→A; • Incubation time: single time point, 2 hours; • Transport buffer: HBSS, pH 7.4; • Incubation conditions: 37° C., 5% CO2.
(§7) After the incubation, sample solutions taken from the dosing wells and the receiving wells were immediately mixed with a cold acetonitrile solution containing the internal standard. Concentrations of the test compounds in all samples (including the initial dosing solutions, the supernatants of the dosing wells and the receiving solutions) were determined by a LC/MS/MS method. The apparent permeability coefficients, the efflux ratios and other parameters were calculated.

[3] = Caco-2 cell bi-directional permeability assessment; details: human, Caco-2, pH 7.4
Method: as §6, §7

Row | SMILES | IC50 (MDA-MB-436 cells) [nM] | inhibitory activities against CDK4 compared with the reference compounds (CDK4/cyclin D1) | IC50 (CDK6/cyclin D1) [nM] | inhibitory activities against CDK6 compared with the reference compounds (CDK6/cyclin D1) | IC50 (MCF-7 cells) [nM] | IC50 (CDK4/cyclin D1) [nM] | IC50 (CDK2/cyclin A) [nM] | MCF-7/MDA-MB-436 (MCF-7 cells) | inhibitory activities against the proliferation of MCF-7 cells compared with the reference compounds (MCF-7 cells) | other results
1 | CC(C)c1c2cc(-c3nc(Nc4ccc(N5CCNCC5)cn4)ncc3F)ccc2nn1C [Example 3, 5-fluoro-4-(3-isopropyl-2-methyl-2H-indazol-5-yl)-N-(5-(piperazin-1-yl)pyridin-2-yl) pyrimidine-2-amine] | 328 | higher inhibitory activities | < 0.8 | higher inhibitory activities | 32.1 | – | – | 10.2 | – | Tomor volumes ([1]; 25.0 mg/kg orally daily, 0 day): 187 mm^3; Tomor volumes ([1]; 25.0 mg/kg orally daily, 7th day): 249 mm^3; Tomor volumes ([1]; 25.0 mg/kg orally daily, 14th day): 288 mm^3; Tomor volumes ([1]; 25.0 mg/kg orally daily, 21st day): 432 mm^3; antitumor activities in the CDX model of MCF-7 breast cancer ([1]; in words): significant antitumor activities
2 | CC(C)c1c2cc(-c3nc(Nc4ccc(C5CCNCC5)cn4)ncc3F)ccc2nn1C [Example 13, 5-fluoro-4-(3-isopropyl-2-methyl-2H-indazol-5-yl)-N-[5-(piperidin-4-yl)-2-pyridyl]pyrimidine-2-amine] | – | – | – | – | – | – | – | – | – | exposure in brain tissue compared with the reference compounds ([2]; rat, versus Palbociclib and LY2835219, in words, b797: 0.5 hour and 2 hour): much higher; Classification Substrates of efflux transporters (Caco-2 monolayer cells): not a substrate of an efflux transporter
3 | CC(C)c1c2c(nn1C)CCN(c1nc(Nc3ccc(C4CCN(C)CC4)cn3)ncc1F)C2 [Example 24] | 3280 | – | 5.79 | – | 265 | 1.38 | 32.8 | 12.4 | – | –
4 | CCN1CCN(Cc2ccc(Nc3ncc(F)c(-c4cc(F)c5nc(C)n(C(C)C)c5c4)n3)nc2)CC1 [LY2835219, Abemaciclib, reference compound] | 1030 | – | – | – | – | – | – | 17.3 | – | Tomor volumes ([1]; 50.0 mg/kg orally daily, 0 day): 187 mm^3; Tomor volumes ([1]; 50.0 mg/kg orally daily, 7th day): 261 mm^3; Tomor volumes ([1]; 50.0 mg/kg orally daily, 14th day): 315 mm^3; Tomor volumes ([1]; 50.0 mg/kg orally daily, 21st day): 443 mm^3; Exposure in brain ([2]; time point 0.5 h): 62 nmol/kg; Exposure in brain ([2]; time point 2 h): 525 nmol/kg; Exposure in brain ([2]; time point 8 h): 774 nmol/kg; Papp A→B at 2 h, 2 μM [3]: 2.69 ×10⁻⁶ cm/s; Papp B→A at 2 h, 2 μM [3]: 6.34 ×10⁻⁶ cm/s; Classification Permeability (Caco-2 monolayer cells): High

Continued, in another order:

Row | IC50 (MDA-MB-436 cells) [nM] | inhibitory activities against CDK4 compared with the reference compounds (CDK4/cyclin D1) | IC50 (CDK6/cyclin D1) [nM] | inhibitory activities against CDK6 compared with the reference compounds (CDK6/cyclin D1) | IC50 (MCF-7 cells) [nM] | IC50 (CDK4/cyclin D1) [nM] | IC50 (CDK2/cyclin A) [nM] | SMILES | MCF-7/MDA-MB-436 (MCF-7 cells) | inhibitory activities against the proliferation of MCF-7 cells compared with the reference compounds (MCF-7 cells) | other results
5 | 667 | higher inhibitory activities | < 0.8 | higher inhibitory activities | 45 | 0.31 | 5.95 | CC(C)c1c2cc(-c3nc(Nc4ccc(N5CCN(CCN)CC5)cn4)ncc3F)ccc2nn1C [Example 9, N-[5-[4-(2-aminoethyl)piperazin-1-yl]-2-pyridyl]-5-fluoro-4-(3-isopropyl-2-methyl-2H-indazol-5-yl)pyrimidine-2-amine] | 14.8 | higher inhibitory activities | –
6 | 496 | higher inhibitory activities | 0.97 | higher inhibitory activities | 28.9 | 0.88 | 6.62 | CC(C)c1c2cc(-c3nc(Nc4ccc(N5CCN(CCO)CC5)cn4)ncc3F)ccc2nn1C [Example 10, 2-[4-[6-[[5-fluoro-4-(3-isopropyl-2-methyl-2H-indazol-5-yl)pyrimidin-2-yl]amino]-3-pyridyl]piperazin-1-yl]ethanol] | 17.2 | higher inhibitory activities | –
7 | 522 | higher inhibitory activities | < 0.8 | higher inhibitory activities | 56 | < 0.3 | 2.82 | CC(C)c1c2cc(-c3nc(Nc4ccc(N5C[C@@H]6C[C@H]5CN6)cn4)ncc3F)ccc2nn1C [Example 15, N-(5-((1 S,4S)-2,5-diazabicyclo[2.2.1]heptan-2-yl)pyridin-2-yl)-5-fluoro-4-(3-isopropyl-2-methyl-2H-indazol-5-yl)pyrimidine-2-amine] | 9.3 | higher inhibitory activities | –
